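Assay format: 96-well plates, 48-hour exposure. The concentration for 50% growth inhibition is given as GI50. TGI: total growth inhibition.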
Experiments:
Test in all cases: DTP human tumour cell line panel, 48 h
SF-539 CNS = system: SF-539 CNS
SR leukemia = system: SR leukemia
MDA-MB-231 breast = system: MDA-MB-231 breast
MCF7 breast = system: MCF7 breast
SNB-19 CNS = system: SNB-19 CNS
SK-MEL-5 melanoma = system: SK-MEL-5 melanoma
PC-3 prostate = system: PC-3 prostate
A549 NSCLC = system: A549 NSCLC
SF-295 CNS = system: SF-295 CNS
KM12 colon = system: KM12 colon
RXF 393 renal = system: RXF 393 renal
HS 578T breast = system: HS 578T breast
HT29 colon = system: HT29 colon
EKVX NSCLC = system: EKVX NSCLC
M14 melanoma = system: M14 melanoma
TK-10 renal = system: TK-10 renal
U251 CNS = system: U251 CNS
786-0 renal = system: 786-0 renal
OVCAR-3 ovarian = system: OVCAR-3 ovarian
NCI-H522 lung = system: NCI-H522 lung
A498 renal = system: A498 renal
K-562 leukemia = system: K-562 leukemia
LOX IMVI melanoma = system: LOX IMVI melanoma
RPMI-8226 leukemia = system: RPMI-8226 leukemia
COLO 205 colon = system: COLO 205 colon
OVCAR-8 ovarian = system: OVCAR-8 ovarian
MDA-MB-435 = system: MDA-MB-435
SK-MEL-2 melanoma = system: SK-MEL-2 melanoma
ACHN renal = system: ACHN renal
UACC-62 melanoma = system: UACC-62 melanoma
UO-31 renal = system: UO-31 renal
MOLT-4 leukemia = system: MOLT-4 leukemia
CAKI-1 renal = system: CAKI-1 renal
NCI-H460 lung = system: NCI-H460 lung
BT-549 breast = system: BT-549 breast
UACC-257 melanoma = system: UACC-257 melanoma
HCT-15 colon = system: HCT-15 colon
CCRF-CEM leukemia = system: CCRF-CEM leukemia
NCI-H226 lung = system: NCI-H226 lung
IGROV1 ovarian = system: IGROV1 ovarian
HOP-62 NSCLC = system: HOP-62 NSCLC
SF-268 CNS = system: SF-268 CNS
SW-620 colon = system: SW-620 colon
SNB-75 CNS = system: SNB-75 CNS
NCI/ADR-RES ovarian = system: NCI/ADR-RES ovarian
OVCAR-5 ovarian = system: OVCAR-5 ovarian
HCC-2998 colon = system: HCC-2998 colon
HOP-92 NSCLC = system: HOP-92 NSCLC
HCT-116 colon = system: HCT-116 colon
T-47D breast = system: T-47D breast
SK-OV-3 ovarian = system: SK-OV-3 ovarian
MALME-3M melanoma = system: MALME-3M melanoma
OVCAR-4 ovarian = system: OVCAR-4 ovarian
SK-MEL-28 melanoma = system: SK-MEL-28 melanoma
NCI-H23 lung = system: NCI-H23 lung
DU-145 prostate = system: DU-145 prostate
HL-60(TB) leukemia = system: HL-60(TB) leukemia

Cc1nn2c(/C=C3/C(=O)Nc4ccccc43)c(-c3ccc(Cl)cc3)nc2s1
GI50 (SF-539 CNS): 0.0174 µM | TGI (SF-539 CNS): 1.27 µM | GI50 (SR leukemia): 13.8 µM | TGI (SR leukemia): > 50 µM | GI50 (MDA-MB-231 breast): 7.05 µM | TGI (MDA-MB-231 breast): 21.3 µM | GI50 (MCF7 breast): 17.1 µM | TGI (MCF7 breast): > 50 µM | GI50 (SNB-19 CNS): 10.5 µM | TGI (SNB-19 CNS): 32.6 µM | GI50 (SK-MEL-5 melanoma): 26.3 µM | TGI (SK-MEL-5 melanoma): > 50 µM | GI50 (PC-3 prostate): 12.2 µM | TGI (PC-3 prostate): 32.2 µM | GI50 (A549 NSCLC): 16.2 µM | TGI (A549 NSCLC): > 50 µM | GI50 (SF-295 CNS): 10.3 µM | TGI (SF-295 CNS): 31.8 µM | GI50 (KM12 colon): 16.5 µM | TGI (KM12 colon): > 50 µM | GI50 (RXF 393 renal): 14.1 µM | TGI (RXF 393 renal): 42.8 µM | GI50 (HS 578T breast): 27.7 µM | TGI (HS 578T breast): > 50 µM | GI50 (HT29 colon): 11.9 µM | TGI (HT29 colon): 27 µM | GI50 (EKVX NSCLC): 20.3 µM | TGI (EKVX NSCLC): > 50 µM | GI50 (M14 melanoma): 11.5 µM | TGI (M14 melanoma): 36.4 µM | GI50 (TK-10 renal): 12.3 µM | TGI (TK-10 renal): 32.1 µM | GI50 (U251 CNS): 9.73 µM | TGI (U251 CNS): 18.7 µM | GI50 (786-0 renal): 9.95 µM | TGI (786-0 renal): 24.2 µM | GI50 (OVCAR-3 ovarian): 13.4 µM | TGI (OVCAR-3 ovarian): > 50 µM | GI50 (NCI-H522 lung): 46 µM | TGI (NCI-H522 lung): > 50 µM | GI50 (A498 renal): > 50 µM | TGI (A498 renal): > 50 µM | GI50 (K-562 leukemia): > 50 µM | TGI (K-562 leukemia): > 50 µM | GI50 (LOX IMVI melanoma): 10.6 µM | TGI (LOX IMVI melanoma): 21.4 µM | GI50 (RPMI-8226 leukemia): 4.37 µM | TGI (RPMI-8226 leukemia): > 50 µM | GI50 (COLO 205 colon): 14.9 µM | TGI (COLO 205 colon): > 50 µM | GI50 (OVCAR-8 ovarian): 31.9 µM | TGI (OVCAR-8 ovarian): > 50 µM | GI50 (MDA-MB-435): 39.5 µM | TGI (MDA-MB-435): > 50 µM | GI50 (SK-MEL-2 melanoma): > 50 µM | TGI (SK-MEL-2 melanoma): > 50 µM | GI50 (ACHN renal): 9.86 µM | TGI (ACHN renal): 20 µM | GI50 (UACC-62 melanoma): 10.2 µM | TGI (UACC-62 melanoma): 21.4 µM | GI50 (UO-31 renal): > 50 µM | TGI (UO-31 renal): > 50 µM | GI50 (MOLT-4 leukemia): > 50 µM | TGI (MOLT-4 leukemia): > 50 µM | GI50 (CAKI-1 renal): 13.3 µM | TGI (CAKI-1 renal): > 50 µM | GI50 (NCI-H460 lung): 22.1 µM | TGI (NCI-H460 lung): > 50 µM | GI50 (BT-549 breast): 10.7 µM | TGI (BT-549 breast): > 50 µM | GI50 (UACC-257 melanoma): 37.3 µM | TGI (UACC-257 melanoma): > 50 µM | GI50 (HCT-15 colon): 15.3 µM | TGI (HCT-15 colon): > 50 µM | GI50 (CCRF-CEM leukemia): 12.3 µM | TGI (CCRF-CEM leukemia): > 50 µM | GI50 (NCI-H226 lung): 10.1 µM | TGI (NCI-H226 lung): 27.5 µM | GI50 (IGROV1 ovarian): 39.1 µM | TGI (IGROV1 ovarian): > 50 µM | GI50 (HOP-62 NSCLC): 22.4 µM | TGI (HOP-62 NSCLC): > 50 µM | GI50 (SF-268 CNS): 19.9 µM | TGI (SF-268 CNS): > 50 µM | GI50 (SW-620 colon): > 50 µM | TGI (SW-620 colon): > 50 µM

O=S(=O)(NC(c1ccccc1)(c1cc2ccccc2[nH]1)c1cc2ccccc2n1S(=O)(=O)c1ccccc1)c1ccccc1 (stereo not drawn)
TGI (SR leukemia): > 100 µM | TGI (SNB-75 CNS): > 100 µM | TGI (MDA-MB-231 breast): > 100 µM | TGI (NCI/ADR-RES ovarian): > 100 µM | TGI (SNB-19 CNS): > 100 µM | TGI (OVCAR-5 ovarian): > 100 µM | TGI (SK-MEL-5 melanoma): > 100 µM | TGI (HCC-2998 colon): > 100 µM | TGI (PC-3 prostate): > 100 µM | TGI (A549 NSCLC): > 100 µM | TGI (SF-295 CNS): > 100 µM | TGI (KM12 colon): > 100 µM | TGI (HS 578T breast): > 100 µM | TGI (HT29 colon): > 100 µM | TGI (EKVX NSCLC): > 100 µM | TGI (M14 melanoma): > 100 µM | TGI (TK-10 renal): > 100 µM | TGI (U251 CNS): > 100 µM | TGI (HOP-92 NSCLC): > 100 µM | TGI (786-0 renal): > 100 µM | TGI (OVCAR-3 ovarian): > 100 µM | TGI (HCT-116 colon): > 100 µM | TGI (A498 renal): > 100 µM | TGI (K-562 leukemia): > 100 µM | TGI (LOX IMVI melanoma): > 100 µM | TGI (RPMI-8226 leukemia): > 100 µM | TGI (COLO 205 colon): > 100 µM | TGI (OVCAR-8 ovarian): > 100 µM | TGI (T-47D breast): > 100 µM | TGI (MDA-MB-435): > 100 µM | TGI (SK-MEL-2 melanoma): > 100 µM | TGI (UACC-62 melanoma): > 100 µM | TGI (SK-OV-3 ovarian): 92.4 µM | TGI (UO-31 renal): > 100 µM | TGI (MOLT-4 leukemia): > 100 µM | TGI (MALME-3M melanoma): > 100 µM | TGI (CAKI-1 renal): > 100 µM | TGI (NCI-H460 lung): > 100 µM | TGI (OVCAR-4 ovarian): > 100 µM | TGI (BT-549 breast): > 100 µM | TGI (SK-MEL-28 melanoma): > 100 µM | TGI (UACC-257 melanoma): > 100 µM | TGI (HCT-15 colon): > 100 µM | TGI (CCRF-CEM leukemia): > 100 µM | TGI (NCI-H226 lung): > 100 µM | TGI (IGROV1 ovarian): > 100 µM | TGI (HOP-62 NSCLC): > 100 µM | TGI (NCI-H23 lung): > 100 µM | TGI (SF-268 CNS): > 100 µM | TGI (DU-145 prostate): > 100 µM | TGI (HL-60(TB) leukemia): > 100 µM | TGI (SW-620 colon): > 100 µM

Reference: PubChem BioAssay (NCI)
